# Literature values, collected in patent US7837990B2, “In vivo expanded NKT cells and methods of use thereof” (The Rockefeller University, priority 2005, dated 2010).
# Experiments:
# tumor = conditions: mouse models
# NKT cells = conditions: patients with advanced cancer or healthy volunteers
compound,measurement,setting,value
"CCCCCCCCCCCCCCCCCCCCCCCCCC(=O)N[C@@H](CO[C@H]1O[C@H](CO)[C@H](O)[C@H](O)[C@H]1O)[C@H](O)[C@H](O)CCCCCCCCCCCCCC [KRN-7000, α-galactosyl ceramide]",anti-tumor effect,tumor,tumor regression in several mouse models
same,NKT activation in vivo,NKT cells,transient NKT activation in some individuals
